Where a SMILES comes first, the peptide text is derived from it.
How the values were obtained:
[1] = EZ-cytox cell viability assay in macrophages; format: cell-based; conditions: mouse, RAW264.7 macrophage cells, LPS (1µg/ml)
Protocol: (§1) RAW264.7 macrophage cells were obtained from the American Type Culture Collection (ATCC) and cultured in Dulbecco's Modified Eagle's Medium (DMEM) containing 100 units/mL penicillin-streptomycin and 10% (v/v) fetal bovine serum (FBS) at 37°C in a 5% CO2 incubator, and subculture was performed every 2 to 3 days.
(§2) The EZ-cytox assay is a representative method for measuring cell viability using the principle that water-soluble tetrazolium salts (WSTs) react with dehydrogenases of viable cells to produce a water-soluble orange formazan.
(§3) To evaluate cytotoxicity, RAW264.7 cells were seeded at 1.5 × 10^4 cells/well in a 96-well plate using DMEM supplemented with 10% FBS and incubated for 18 hours at 37°C in a 5% CO2 incubator. The test samples were then applied to the cultured cells. After treatment, EZ-cytox was added to each well and incubated for 30 minutes under the same conditions. Absorbance was measured at 450 nm using a microplate reader. The mean absorbance values of each sample group were compared with the control group to determine cell viability.

NHDF cells = experiment: Procollagen Type I Peptide (PIP) production, EIA of culture supernatant; format: cell-based, Human; conditions: 10 µg/mL (positive control), untreated group = 100
Protocol: Normal Human Dermal Fibroblasts (NHDF) were obtained from Lonza (Lonza Walkersville, Inc.) and cultured in FBM (Fibroblast Basal Medium) supplemented with 0.1% hFGF-B, insulin, GA-1000, and 2% FBS at 37°C in a 5% CO2 incubator. Subculture was performed every 2 to 3 days.
NHDF cells were seeded at 2.0 × 10^4 cells/well in a 24-well plate and incubated for 24 hours at 37°C in a 5% CO2 incubator. After incubation, the culture medium was replaced with serum-free FBM, and the peptide prepared in the above Example was applied at concentrations of 1-100 µM, followed by incubation for 24 hours. The supernatant from each experimental group was collected, and the amount of procollagen released into the medium was measured. The positive control group was treated with ascorbic acid at a concentration of 0.001 v/v%. Measurement of procollagen levels was performed using a Procollagen Type I Peptide (PIP) EIA Kit (Takara Biomedical Co.) according to the manufacturer's protocol. The quantitative results of procollagen type I peptide production following treatment with the peptide of the Example are shown in Table 3 and Fig. 4.

HaCaT cells = experiment: Hyaluronic acid (HA) production, ELISA of culture supernatant; format: cell-based, human; conditions: 10 mM (positive control), untreated group = 100
Protocol: The HaCaT human keratinocyte cell line was obtained from Cell Line Service GmbH (Germany). The cells were cultured in DMEM containing 1% penicillin-streptomycin and 10% fetal bovine serum (FBS) at 37°C in a 5% CO2 incubator, and subculture was performed every 2 to 3 days.
HaCaT cells were seeded at 1.0 × 10^5 cells/well in a 24-well plate and incubated for 24 hours at 37°C in a 5% CO2 incubator. After incubation, the culture medium was replaced with serum-free DMEM, and the peptide prepared in the above Example was applied at concentrations of 50-200 µM, followed by incubation for 24 hours. The supernatant from each experimental group was collected, and the amount of hyaluronic acid (HA) released into the medium was measured. The positive control group was treated with N-acetylglucosamine at a concentration of 10 mM. Measurement of hyaluronic acid production was conducted using a Hyaluronic Acid ELISA Kit (Cusabio Biotechnology Co., Ltd.) following the manufacturer's protocol.

RAW264.7 cells [2] = experiment: Inhibition of nitric oxide (NO) production, Griess reagent, LPS-stimulated macrophages; format: cell-based; conditions: 10 µM (positive control), LPS (1µg/ml), relative to LPS control = 100
Protocol: as §1
RAW264.7 cells were seeded at 1.5 × 10^5 cells/well in a 24-well plate and incubated for 18 hours at 37°C in a 5% CO2 incubator. The cells were then treated with the peptide prepared in the above Example at concentrations of 50-200 µM and incubated for 24 hours. From each experimental group, 100 µL of the supernatant was collected into a 96-well plate, and 100 µL of griess reagent was added. The mixture was allowed to react at room temperature for 10 minutes, and absorbance was measured at 540 nm using a microplate reader. […] The relative levels of NO production following the treatments described in the above Example, based on NO production induced by the stimulant (LPS), are shown in Table 1 and Figure 2 below.

RAW264.7 cells [3] = experiment: EZ-cytox cell viability assay in macrophages; format: cell-based; conditions: 10 µM (positive control), LPS (1µg/ml)
Protocol: as §1, §2, §3

## N[C@@H](Cc1ccc(O)cc1)C(=O)NCC(=O)N[C@@H](CO)C(=O)N[C@@H](CC(=O)O)C(=O)O [Example, YGSD (Tyr-Gly-Ser-Asp)] (H-YGSD-OH)
[1]; 50 µM
  viability at 50 µM: 98.1 ± 1.81%
[1]; 100 µM
  viability at 100 µM: 99.4 ± 2.02%
[1]; 200 µM
  viability at 200 µM: 99.53 ± 0.95%

## O=C1O[C@H]([C@@H](O)CO)C(O)=C1O [Asc.A, ascorbic acid]
NHDF cells
  Procollagen production (%): 175.82±3.91%

## CC(=O)N[C@H]1C(O)O[C@H](CO)[C@@H](O)[C@@H]1O (stereo partly shown) [NAG, N-acetylglucosamine]
HaCaT cells
  Hyaluronic acid production (%): 121.43±10.37%

## Cc1ccnc(N)c1 [Example 2-AM, 2-amino-4-methylpyridine]
RAW264.7 cells [2]
  NO Production (%): 10.23±0.55%
RAW264.7 cells [3]
  Cell viability (%): 94.12±1.76%

— patent EP4671261A1, “NOVEL PEPTIDE EXHIBITING SKIN CONDITION IMPROVEMENT ACTIVITY AND COSMETIC COMPOSITION CONTAINING SAME” (Daebong LS Co., Ltd., priority 2023, dated 2024)
